Test results as given in article PMC10108353, “Design and Pharmacological Characterization of α4β1 Integrin Cyclopeptide Agonists: Computational Investigation of Ligand Determinants for Agonism versus Antagonism” (Journal of Medicinal Chemistry, 2023).

Columns and labels:
α4β1 integrin [1] = molecular target: T1, α4β1 integrin (Homo sapiens, UniProt P05556+P13612); assay: Competitive solid-phase binding assay, purified α4β1 / VCAM-1; set-up: purchased R&D Systems; conditions: read-out: Binding affinity IC50, α4β1/VCAM-1
Protocol: (§1) For the evaluation of binding affinity to purified α4β1, αMβ2, and α4β7 integrins, competitive solid-phase ligand binding assays were performed as follows. […] Afterward, each well was washed and blocked for 1 h at RT. Purified integrins (α4β1: 0.5 μg/mL; α4β7: 0.5 μg/mL; αMβ2: 0.5 μg/mL; R&D Systems) were preincubated with serial dilutions of new compounds (10^–4 – 10^–10 M) for 30 min at RT and then plated into coated wells for 1 h at RT. After two washes, primary antibody (for α4β1 and α4β7: rabbit anti-α4, Abcam, 1:100 dilution; for αMβ2: rabbit anti-αM, Abcam, 1:100 dilution) was added and incubated for 1 h at RT. The plate was washed twice and then was incubated with anti-rabbit AlexaFluor488 secondary antibody (1:400 dilution, ThermoFischer Scientific) for 1 h at RT. After washing three times, fluorescence was measured as described in the previous section.
Target sequence in this assay (P05556 21-728 limits assumed, one chain of several): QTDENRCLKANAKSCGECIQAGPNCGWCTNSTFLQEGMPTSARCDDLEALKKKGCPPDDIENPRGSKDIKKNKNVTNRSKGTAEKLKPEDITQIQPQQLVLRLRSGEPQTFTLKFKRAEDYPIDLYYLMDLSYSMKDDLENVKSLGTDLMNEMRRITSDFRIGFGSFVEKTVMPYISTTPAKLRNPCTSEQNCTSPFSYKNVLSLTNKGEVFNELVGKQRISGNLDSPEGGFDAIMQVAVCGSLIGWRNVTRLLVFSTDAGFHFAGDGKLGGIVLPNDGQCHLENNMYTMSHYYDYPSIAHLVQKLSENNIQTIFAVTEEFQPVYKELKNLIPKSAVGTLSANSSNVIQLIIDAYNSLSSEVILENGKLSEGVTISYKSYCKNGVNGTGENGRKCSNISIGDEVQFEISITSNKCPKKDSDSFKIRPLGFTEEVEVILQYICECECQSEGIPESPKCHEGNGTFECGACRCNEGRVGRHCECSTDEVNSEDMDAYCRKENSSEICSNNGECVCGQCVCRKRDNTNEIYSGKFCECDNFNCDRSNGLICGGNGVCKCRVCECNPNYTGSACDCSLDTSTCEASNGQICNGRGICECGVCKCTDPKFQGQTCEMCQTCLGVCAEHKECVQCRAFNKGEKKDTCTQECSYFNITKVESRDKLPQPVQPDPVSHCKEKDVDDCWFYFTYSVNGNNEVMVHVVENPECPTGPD

αLβ2 integrin = αLβ2 integrin (Homo sapiens, UniProt P05107+P20701); assay: Competitive solid-phase binding assay, purified αLβ2 / ICAM-1; conditions: read-out: Binding affinity IC50, αLβ2/ICAM-1
Sequence of αLβ2 integrin (P20701 26-1170): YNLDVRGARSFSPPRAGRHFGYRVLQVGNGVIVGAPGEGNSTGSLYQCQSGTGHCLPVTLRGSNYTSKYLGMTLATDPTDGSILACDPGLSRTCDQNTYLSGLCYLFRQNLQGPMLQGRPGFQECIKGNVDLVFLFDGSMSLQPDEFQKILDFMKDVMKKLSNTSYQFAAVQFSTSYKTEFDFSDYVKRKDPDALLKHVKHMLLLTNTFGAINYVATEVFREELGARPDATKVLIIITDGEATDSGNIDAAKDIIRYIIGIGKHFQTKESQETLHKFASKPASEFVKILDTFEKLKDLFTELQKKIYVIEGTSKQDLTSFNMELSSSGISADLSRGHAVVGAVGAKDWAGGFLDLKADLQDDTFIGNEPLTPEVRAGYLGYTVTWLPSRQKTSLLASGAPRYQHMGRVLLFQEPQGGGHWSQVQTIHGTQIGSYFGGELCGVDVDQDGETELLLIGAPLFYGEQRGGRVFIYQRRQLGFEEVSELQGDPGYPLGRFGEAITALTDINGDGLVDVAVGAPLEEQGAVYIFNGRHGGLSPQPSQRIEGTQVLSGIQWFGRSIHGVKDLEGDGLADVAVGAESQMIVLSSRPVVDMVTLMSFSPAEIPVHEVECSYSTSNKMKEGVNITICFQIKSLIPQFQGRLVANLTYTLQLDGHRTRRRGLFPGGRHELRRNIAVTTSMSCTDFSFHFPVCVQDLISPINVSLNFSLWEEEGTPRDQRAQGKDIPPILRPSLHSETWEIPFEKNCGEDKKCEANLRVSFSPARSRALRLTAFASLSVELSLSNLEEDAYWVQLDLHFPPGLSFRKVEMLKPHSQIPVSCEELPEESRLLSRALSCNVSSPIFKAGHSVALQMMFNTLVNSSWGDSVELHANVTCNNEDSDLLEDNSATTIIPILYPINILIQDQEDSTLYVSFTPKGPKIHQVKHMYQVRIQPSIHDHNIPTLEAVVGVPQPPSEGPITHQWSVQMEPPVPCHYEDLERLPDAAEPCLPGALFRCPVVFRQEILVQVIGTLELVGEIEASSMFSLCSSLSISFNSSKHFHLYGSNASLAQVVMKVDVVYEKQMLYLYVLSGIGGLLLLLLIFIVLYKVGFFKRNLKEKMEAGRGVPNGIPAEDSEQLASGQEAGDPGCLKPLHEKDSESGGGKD
Sequence of αLβ2 integrin (P05107 23-769): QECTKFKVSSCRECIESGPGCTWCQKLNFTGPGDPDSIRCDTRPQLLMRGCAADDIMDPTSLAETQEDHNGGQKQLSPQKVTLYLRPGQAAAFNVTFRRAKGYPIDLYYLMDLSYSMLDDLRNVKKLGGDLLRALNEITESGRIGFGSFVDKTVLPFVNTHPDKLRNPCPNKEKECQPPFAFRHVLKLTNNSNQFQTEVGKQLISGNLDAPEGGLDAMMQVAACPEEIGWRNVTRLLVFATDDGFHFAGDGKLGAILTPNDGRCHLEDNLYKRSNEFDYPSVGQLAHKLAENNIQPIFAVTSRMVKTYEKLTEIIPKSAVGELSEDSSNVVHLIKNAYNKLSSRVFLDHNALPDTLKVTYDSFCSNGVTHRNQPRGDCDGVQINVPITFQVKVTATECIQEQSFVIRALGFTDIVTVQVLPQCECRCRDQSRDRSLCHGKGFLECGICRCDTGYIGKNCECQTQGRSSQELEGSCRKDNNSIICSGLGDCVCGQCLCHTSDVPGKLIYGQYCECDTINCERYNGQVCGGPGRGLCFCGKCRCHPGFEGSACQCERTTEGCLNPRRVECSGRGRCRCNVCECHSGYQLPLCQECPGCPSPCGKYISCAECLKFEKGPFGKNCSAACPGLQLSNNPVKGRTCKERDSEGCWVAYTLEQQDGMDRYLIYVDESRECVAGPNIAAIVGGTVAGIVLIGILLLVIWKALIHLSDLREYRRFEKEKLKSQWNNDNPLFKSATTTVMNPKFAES
Protocol: Solid-phase ligand binding assays on purified integrin were conducted as previously described[34] with the following modifications. […] The following day, wells were blocked with TSB buffer (20 mM Tris-HCl, 150 mM NaCl, 1 mM CaCl2, 1 mM MgCl2, 1 mM MnCl2, pH 7.5, 1% BSA) for 1 h at room temperature. Purified α5β1 (10 μg/mL) or αLβ2 (7 μg/mL) was incubated with the new synthesized compounds, at different concentrations (10^–4 to 10^–10 M), in coated wells for 1 h at RT. Then, after three washes with PBST buffer, primary antibody (anti-α5β1, BD Bioscience, 1:100 dilution or anti-αL, Abcam, 1:200 dilution) was added for 1 h at RT. Then antirabbit AlexaFluor488-secondary antibody (ThermoFisher Scientific, 1:400 dilution) was added after three washes with PBST buffer and incubated 1 h at room temperature.

α4β1 integrin [2] = molecular target: T1, α4β1 integrin; assay: Jurkat E6.1 cell adhesion to VCAM-1
Protocol: (§2) Cells were seeded in 96-well plates coated with the specific natural human recombinant ligands (Table 1) and allowed to adhere in the presence of increasing concentrations (10^–10 to 10^–4 M) of the synthesized CPPs before the determination of the number of adherent cells (as described in Experimental Section).
For adhesion assays on Jurkat E6.1, RPMI8866, or HL60 cells, black 96-well plates were coated overnight at 4 °C with VCAM-1 or ICAM-1 or MAdCAM-1 (5 μg/mL) or Fg (10 μg/mL). The cells were counted, stained with CellTracker green CMFDA (12.5 μM, 30 min at 37 °C, Life Technologies), and after three washes, were preincubated with increasing concentrations of new CPP (10^–10 to 10^–4 M) or with the vehicle (methanol) for 30 min at 37 °C. Then cells were plated (500 000/well) on coated wells and incubated for 30 min at 37 °C. After three washes, adhered cells were lysed with 0.5% Triton X-100 in PBS (30 min at 4 °C) and fluorescence was measured (Ex485 nm/Em535 nm) in an EnSpire Multimode Plate Reader (PerkinElmer, Waltham, MA). For adhesion assays mediated by α5β1 integrin, 96-well plates were coated by passive adsorption with FN (10 μg/mL) overnight at 4 °C. K562 cells were counted and preincubated with various concentrations of the peptides or with the vehicle (methanol) for 30 min at RT. Afterward, the cells were plated (50 000 cells/well) and incubated at RT for 1 h. The wells were then washed with 1% BSA in PBS (phosphate-buffered saline) to take off nonadherent cells, and 50 μL of hexosaminidase substrate was added; after addition of 100 μL of stopping solution, the plates were read at 405 nm. In both types of adhesion assay, the number of adherent cells was determined by comparison with a standard curve made in the same plate. Experiments were carried out in quadruplicate and repeated at least three times.
Jurkat E6.1 (expressing α4β1 and αLβ2 integrin), K562 (expressing α5β1 integrin) and HL60 (expressing αMβ2 integrin) cell lines were purchased from ATCC (Rockville, MD, USA); these cells were routinely cultured in RPMI-1640 (Life Technologies) supplemented with glutamine and 10% FBS.
Cells were grown at 37 °C under 5% CO2 humidified atmosphere.

α4β7 integrin = molecular target: T2, α4β7 integrin (Homo sapiens, UniProt P13612+P26010); conditions: purified integrin; read-out: Binding affinity IC50, α4β7/MAdCAM-1
T2 construct: purchased R&D Systems
T2 sequence (P13612 34-970 limits assumed): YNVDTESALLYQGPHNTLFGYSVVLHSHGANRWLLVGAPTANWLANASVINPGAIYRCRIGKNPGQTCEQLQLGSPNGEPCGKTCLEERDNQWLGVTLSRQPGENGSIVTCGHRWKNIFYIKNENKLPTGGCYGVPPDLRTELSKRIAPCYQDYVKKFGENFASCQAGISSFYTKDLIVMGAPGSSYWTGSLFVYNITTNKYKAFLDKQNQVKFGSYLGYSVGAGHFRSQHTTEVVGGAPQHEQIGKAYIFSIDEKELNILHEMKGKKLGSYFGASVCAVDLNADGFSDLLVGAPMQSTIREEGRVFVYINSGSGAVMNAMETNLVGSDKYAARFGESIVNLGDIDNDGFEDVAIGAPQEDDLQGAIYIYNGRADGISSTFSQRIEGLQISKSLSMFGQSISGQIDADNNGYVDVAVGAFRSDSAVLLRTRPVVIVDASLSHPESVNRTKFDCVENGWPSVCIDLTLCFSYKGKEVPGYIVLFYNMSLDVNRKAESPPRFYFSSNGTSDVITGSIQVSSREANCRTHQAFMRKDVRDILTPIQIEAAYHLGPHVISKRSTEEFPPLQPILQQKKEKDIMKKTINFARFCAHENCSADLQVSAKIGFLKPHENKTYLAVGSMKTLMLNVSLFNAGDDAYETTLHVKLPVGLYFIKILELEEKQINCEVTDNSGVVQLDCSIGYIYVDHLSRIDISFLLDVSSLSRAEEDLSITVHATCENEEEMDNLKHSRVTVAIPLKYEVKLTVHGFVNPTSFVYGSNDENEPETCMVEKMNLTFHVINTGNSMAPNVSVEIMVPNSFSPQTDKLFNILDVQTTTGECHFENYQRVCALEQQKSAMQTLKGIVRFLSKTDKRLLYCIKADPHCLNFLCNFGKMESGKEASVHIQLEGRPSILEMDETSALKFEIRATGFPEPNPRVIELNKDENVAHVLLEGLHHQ
T2 sequence (P26010 20-723 limits assumed): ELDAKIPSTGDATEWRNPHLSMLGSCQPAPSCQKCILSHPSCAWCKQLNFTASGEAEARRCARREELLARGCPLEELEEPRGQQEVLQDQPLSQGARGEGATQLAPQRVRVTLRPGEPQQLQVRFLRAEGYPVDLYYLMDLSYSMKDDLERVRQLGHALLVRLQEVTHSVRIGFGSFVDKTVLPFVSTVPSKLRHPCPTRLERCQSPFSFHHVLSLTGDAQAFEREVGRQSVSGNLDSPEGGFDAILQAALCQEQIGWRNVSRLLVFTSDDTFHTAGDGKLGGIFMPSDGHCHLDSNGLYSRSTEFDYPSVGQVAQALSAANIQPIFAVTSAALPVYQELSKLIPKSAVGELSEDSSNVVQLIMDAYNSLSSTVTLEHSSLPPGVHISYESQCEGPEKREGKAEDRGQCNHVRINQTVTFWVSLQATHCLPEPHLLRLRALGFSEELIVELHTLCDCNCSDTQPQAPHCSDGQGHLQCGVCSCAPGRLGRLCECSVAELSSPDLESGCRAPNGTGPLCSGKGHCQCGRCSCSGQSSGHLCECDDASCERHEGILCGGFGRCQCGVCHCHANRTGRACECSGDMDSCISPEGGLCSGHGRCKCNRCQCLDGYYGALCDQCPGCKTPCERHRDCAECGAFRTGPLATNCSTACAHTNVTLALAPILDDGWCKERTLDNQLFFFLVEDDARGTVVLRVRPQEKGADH
Protocol: as §1

α5β1 integrin = α5β1 integrin (Homo sapiens, UniProt P05556+P08648); assay: K562 cell adhesion to FN
Sequence of α5β1 integrin (P08648 42-894 limits assumed): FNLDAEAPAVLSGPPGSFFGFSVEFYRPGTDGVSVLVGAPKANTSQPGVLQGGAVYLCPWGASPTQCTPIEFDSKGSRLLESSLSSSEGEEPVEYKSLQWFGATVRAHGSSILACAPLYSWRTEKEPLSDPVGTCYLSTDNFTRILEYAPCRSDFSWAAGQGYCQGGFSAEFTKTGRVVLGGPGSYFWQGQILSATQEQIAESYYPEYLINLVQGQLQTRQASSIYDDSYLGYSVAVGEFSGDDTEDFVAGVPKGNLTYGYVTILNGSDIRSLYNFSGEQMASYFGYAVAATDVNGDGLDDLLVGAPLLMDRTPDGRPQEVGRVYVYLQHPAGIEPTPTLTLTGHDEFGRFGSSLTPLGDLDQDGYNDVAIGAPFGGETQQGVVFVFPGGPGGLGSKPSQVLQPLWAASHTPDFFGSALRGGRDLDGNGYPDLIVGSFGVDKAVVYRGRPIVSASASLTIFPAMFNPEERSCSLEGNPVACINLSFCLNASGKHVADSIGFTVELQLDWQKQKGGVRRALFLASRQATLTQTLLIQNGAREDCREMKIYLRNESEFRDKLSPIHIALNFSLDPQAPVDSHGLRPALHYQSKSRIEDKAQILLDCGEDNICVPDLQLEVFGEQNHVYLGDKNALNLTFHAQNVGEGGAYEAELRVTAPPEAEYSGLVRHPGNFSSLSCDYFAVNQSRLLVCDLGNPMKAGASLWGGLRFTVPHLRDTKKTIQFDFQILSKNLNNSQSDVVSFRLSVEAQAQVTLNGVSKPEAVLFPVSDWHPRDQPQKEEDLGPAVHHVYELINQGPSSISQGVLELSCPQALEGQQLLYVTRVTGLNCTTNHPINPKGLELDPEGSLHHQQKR
Sequence of α5β1 integrin (P08648 895-1049 partner limits assumed): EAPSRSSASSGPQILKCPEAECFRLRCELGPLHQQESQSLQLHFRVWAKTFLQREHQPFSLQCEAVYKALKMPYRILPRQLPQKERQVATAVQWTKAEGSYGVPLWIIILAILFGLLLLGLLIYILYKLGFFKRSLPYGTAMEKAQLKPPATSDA
Sequence of α5β1 integrin (P05556 21-798): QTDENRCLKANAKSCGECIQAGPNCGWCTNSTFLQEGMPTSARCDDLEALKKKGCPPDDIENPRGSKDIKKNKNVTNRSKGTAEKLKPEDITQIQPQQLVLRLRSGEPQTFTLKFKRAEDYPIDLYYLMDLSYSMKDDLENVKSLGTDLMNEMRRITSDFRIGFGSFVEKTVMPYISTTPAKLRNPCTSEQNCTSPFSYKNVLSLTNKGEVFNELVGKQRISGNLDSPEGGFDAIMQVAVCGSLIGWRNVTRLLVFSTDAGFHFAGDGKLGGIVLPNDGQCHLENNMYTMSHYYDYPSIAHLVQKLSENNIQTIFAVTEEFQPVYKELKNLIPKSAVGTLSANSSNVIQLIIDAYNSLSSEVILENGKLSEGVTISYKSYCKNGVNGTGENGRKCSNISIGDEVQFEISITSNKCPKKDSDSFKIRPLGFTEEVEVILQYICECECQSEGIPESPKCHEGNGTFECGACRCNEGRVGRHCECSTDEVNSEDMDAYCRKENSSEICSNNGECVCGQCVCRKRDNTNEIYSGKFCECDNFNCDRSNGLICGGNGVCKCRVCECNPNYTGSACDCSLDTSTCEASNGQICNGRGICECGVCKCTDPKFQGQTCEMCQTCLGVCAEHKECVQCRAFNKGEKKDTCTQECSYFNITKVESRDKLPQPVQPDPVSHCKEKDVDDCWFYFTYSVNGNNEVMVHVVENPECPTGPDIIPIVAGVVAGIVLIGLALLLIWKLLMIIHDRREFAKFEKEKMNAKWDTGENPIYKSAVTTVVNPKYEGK
Protocol: as §2
For adhesion assays on Jurkat E6.1, RPMI8866, or HL60 cells, black 96-well plates were coated overnight at 4 °C with VCAM-1 or ICAM-1 or MAdCAM-1 (5 μg/mL) or Fg (10 μg/mL). The cells were counted, stained with CellTracker green CMFDA (12.5 μM, 30 min at 37 °C, Life Technologies), and after three washes, were preincubated with increasing concentrations of new CPP (10^–10 to 10^–4 M) or with the vehicle (methanol) for 30 min at 37 °C. […] After three washes, adhered cells were lysed with 0.5% Triton X-100 in PBS (30 min at 4 °C) and fluorescence was measured (Ex485 nm/Em535 nm) in an EnSpire Multimode Plate Reader (PerkinElmer, Waltham, MA). […] K562 cells were counted and preincubated with various concentrations of the peptides or with the vehicle (methanol) for 30 min at RT. […] The wells were then washed with 1% BSA in PBS (phosphate-buffered saline) to take off nonadherent cells, and 50 μL of hexosaminidase substrate was added; after addition of 100 μL of stopping solution, the plates were read at 405 nm. […]

[3] = agonist = adhesion index >1, antagonist = adhesion index <1

| SMILES | IC50 (α4β1 integrin [1]) [µM] | IC50 (αLβ2 integrin) [µM] | agonist or antagonist behaviour, VCAM-1/Jurkat E6.1 α4β1 (α4β1 integrin [2]; [3]) | EC50 (α4β1 integrin [2]; read-out: EC50 for agonists, VCAM-1/Jurkat E6.1 α4β1, increase of cell adhesion, mean ± SD) [µM] | IC50 (α4β7 integrin) [µM] | agonist or antagonist behaviour, FN/K562 α5β1 (α5β1 integrin; [3]) | EC50 (α5β1 integrin; read-out: EC50 for agonists, FN/K562 α5β1, increase of cell adhesion, mean ± SD) [µM] |
| --- | --- | --- | --- | --- | --- | --- | --- |
| Cc1ccccc1NC(=O)N1C(=O)CC1CC(=O)O (stereo not shown) [1a] | 0.0101 ± 0.0049 | > 5 | agonist | 0.013 ± 0.0008 | > 5 | – | – |
| Cc1ccccc1NC(=O)N1C(=O)CC1CC(=O)NCC(=O)O (stereo not shown) [1b] | > 5 | > 5 | – | – | > 5 | agonist | 0.0097 ± 0.0005 |
